Patent US20040106626A1, “6-Membered unsaturated heterocyclic compounds useful for selective inhibition of the coagulation cascade” (Pharmacia Corporation, priority 2001, published 2004)
Counter-ions that a name gives are not always drawn.

Experiments:
Type in all cases: biochemical
[1] = target: T1, Human factor Xa (Homo sapiens, UniProt P00742); assay: Xa assay (chromogenic substrate S-2765); details: reported only as less than or greater than 30 uM; read-out: Factor Xa (II) IC50
T1 construct: purchased Enzyme Research Laboratories, South Bend Ind
T1 sequence (P00742 235-488 limits assumed): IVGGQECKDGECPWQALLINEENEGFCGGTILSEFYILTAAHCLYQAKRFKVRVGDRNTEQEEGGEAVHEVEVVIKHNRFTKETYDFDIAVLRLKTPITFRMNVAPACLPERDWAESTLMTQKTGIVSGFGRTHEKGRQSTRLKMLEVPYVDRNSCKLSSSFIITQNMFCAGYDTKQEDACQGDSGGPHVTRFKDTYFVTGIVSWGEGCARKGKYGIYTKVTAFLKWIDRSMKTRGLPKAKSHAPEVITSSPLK
T1 sequence (P00742 41-179 limits assumed): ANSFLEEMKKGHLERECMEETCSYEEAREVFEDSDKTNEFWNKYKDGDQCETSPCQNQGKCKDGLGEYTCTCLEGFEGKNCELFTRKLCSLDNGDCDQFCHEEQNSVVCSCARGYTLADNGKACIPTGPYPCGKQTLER
Procedure: Human factor Xa (0.3 nM) and 0.15 mM -a-Benzyloxycarbonyl-D-arginyl-L-glycyl-L-arginine-p-nitroaniline-dihydrochloride (S-2765) are added to a 96-well assay plate containing either inhibitor or buffer (50 mM Tris-HCl, pH 8.0, 100 mM NaCl, 0.1% BSA). The reaction, in a final volume of 100 ul is measured immediately at 405 nm to determine background absorbance. The plate is incubated at room temperature for 60 min, at which time the rate of hydrolysis of the substrate is measured by monitoring the reaction at 405 nm for the release of p-nitroaniline. Percent inhibition of Xa activity is calculated from OD405 nm value from the experimental and control sample.
Recombinant soluble TF, consisting of amino acids 1-219 of the mature protein sequence was expressed in E. coli and purified using a Mono Q Sepharose FPLC. Recombinant human VIIa was purchased from American Diagnostica, Greenwich CT and chromogenic substrate N-methylsulfonyl-D-phe-gly-arg-p-nitroaniline was prepared by American Peptide Company, Inc., Sunnyvale, Calif. Factor Xa was obtained from Enzyme Research Laboratories, South Bend Ind., thrombin from Calbiochem, La Jolla, Calif., and trypsin and L-BAPNA from Sigma, St. Louis Mo. The chromogenic substrates S-2765 and S-2238 were purchased from Chromogenix, Sweden.

[2] = target: T2, Human thrombin (Homo sapiens, UniProt P00734); assay: Thrombin assay (chromogenic substrate); details: reported only as less than or greater than 30 uM; read-out: Thrombin (II) IC50
T2 construct: converts prothrombin (II) to thrombin (IIa); purchased Calbiochem, La Jolla, Calif
Procedure: Percent inhibition of thrombin activity is calculated from OD405 nm value from the experimental and control sample.
(§1) Recombinant human VIIa was purchased from American Diagnostica, Greenwich CT and chromogenic substrate N-methylsulfonyl-D-phe-gly-arg-p-nitroaniline was prepared by American Peptide Company, Inc., Sunnyvale, Calif. Factor Xa was obtained from Enzyme Research Laboratories, South Bend Ind., thrombin from Calbiochem, La Jolla, Calif., and trypsin and L-BAPNA from Sigma, St. Louis Mo.

[3] = target: T3, recombinant soluble tissue factor and recombinant human factor VIIa (TF-VIIa) (Homo sapiens, UniProt P08709); assay: TF-VIIa assay (chromogenic substrate hydrolysis); details: reported only as less than or greater than 0.1 uM
T3 construct: conversion of coagulation factor VII to VIIa by factor Xa; purchased American Diagnostica, Greenwich CT; host or cells: soluble TF made in house in E. coli
T3 sequence (P08709 213-466 limits assumed): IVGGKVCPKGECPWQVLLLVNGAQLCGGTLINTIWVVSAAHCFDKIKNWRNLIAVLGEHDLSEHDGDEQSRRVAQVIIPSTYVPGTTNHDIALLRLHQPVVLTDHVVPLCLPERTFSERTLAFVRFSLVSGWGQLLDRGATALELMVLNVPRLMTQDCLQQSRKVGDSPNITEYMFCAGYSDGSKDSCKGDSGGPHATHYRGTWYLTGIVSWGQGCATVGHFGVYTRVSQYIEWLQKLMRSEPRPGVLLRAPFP
T3 sequence (P08709 61-212 limits assumed): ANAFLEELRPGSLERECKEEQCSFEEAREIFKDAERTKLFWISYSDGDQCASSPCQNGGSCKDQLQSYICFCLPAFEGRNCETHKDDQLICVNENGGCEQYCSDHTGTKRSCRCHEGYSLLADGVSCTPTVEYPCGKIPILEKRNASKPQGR
T3 sequence (P13726 33-251 partner limits assumed): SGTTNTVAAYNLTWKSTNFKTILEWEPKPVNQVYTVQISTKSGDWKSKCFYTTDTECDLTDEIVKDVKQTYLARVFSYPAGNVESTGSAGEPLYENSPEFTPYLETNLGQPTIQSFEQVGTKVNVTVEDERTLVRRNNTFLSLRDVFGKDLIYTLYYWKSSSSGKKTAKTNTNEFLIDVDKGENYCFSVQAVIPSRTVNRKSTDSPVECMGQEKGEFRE
Procedure: In this assay 100 nM recombinant soluble tissue factor and 2 nM recombinant human factor VIIa are added to a 96-well assay plate containing 0.4 mM of the substrate, N-methylsulfonyl-D-phe-gly-arg-p-nitroaniline and either inhibitor or buffer (5 mM CaCl2, 50 mM Tris-HCl, pH 8.0, 100 mM NaCl, 0.1% BSA). […] Percent inhibition of TF-VIIa activity is calculated from OD405 nm value from the experimental and control sample.
as §1

IC50 [1] [µM] | IC50 [2] [µM] | IC50 [3] [µM] | Structure (SMILES)
> 30 | > 30 | < 0.1 | COC(=O)c1cc(N)cc(-c2ncc(NC(C)C)c(=O)n2CC(=O)NCc2ccc(C(=N)N)cc2)c1 [Example 1]
> 30 | > 30 | < 0.1 | CC(C)Nc1cnc(-c2cc(N)cc(C(=O)O)c2)n(CC(=O)NCc2ccc(C(=N)N)cc2)c1=O [Example 2]
> 30 | < 30 | < 0.1 | CC(C)CNC(=O)c1cc(N)cc(-c2cnc(NC(C)C)c(=O)n2CC(=O)NCc2ccc(C(=N)N)cc2)c1 [Example 5]
> 30 | > 30 | < 0.1 | CC(C)Nc1ncc(-c2cc(N)cc(C(=O)NCc3cccc(F)c3)c2)n(CC(=O)NCc2ccc(C(=N)N)cc2)c1=O [Example 8]
> 30 | < 30 | < 0.1 | CC(C)Nc1ncc(-c2cc(N)cc(C(=O)NC3CCCCCC3)c2)n(CC(=O)NCc2ccc(C(=N)N)cc2)c1=O [Example 9]
< 30 | < 30 | < 0.1 | CC(C)Nc1ncc(-c2cc(N)cc(C(=O)NC3CCCC3)c2)n(CC(=O)NCc2ccc(C(=N)N)cc2)c1=O [Example 11]
> 30 | < 30 | < 0.1 | CC(C)Nc1ncc(-c2cc(N)cc(C(=O)NC(C)(C)c3ccccc3)c2)n(CC(=O)NCc2ccc(C(=N)N)cc2)c1=O [Example 13]
> 30 | > 30 | > 0.1 | COC(=O)c1cc(N)cc(-c2cnc(NC(C)C)c(=O)n2CC(=O)NCc2c(F)c(O)c(C(=N)N)c(F)c2F)c1 [Example 20]
> 30 | > 30 | < 0.1 | COC(=O)c1cc(N)cc(-c2cnc(NC(C)C)c(=O)n2CC(=O)NCc2ccc(C(=N)N)cc2)c1 [Example 21, Methyl 3-amino-5-[1-[2-({4-[amino(imino)methyl]benzyl}amino)-2-oxoethyl]-5-(isopropylamino)-6-oxo-1,6-dihydropyrazin-2-yl]benzoate Trifluoroacetate]
> 30 | > 30 | > 0.1 | COC(=O)Cc1cc(N)c(OC)c(-c2cnc(NC(C)C)c(=O)n2CC(=O)NCc2ccc(C(=N)N)cc2)c1 [Example 22, Methyl {3-amino-5-[1-[2-({4-[amino(imino)methyl]benzyl}amino)-2-oxoethyl]-5-(isopropylamino)-6-oxo-1,6-dihydropyrazin-2-yl]-4-methoxyphenyl}acetate]
> 30 | > 30 | > 0.1 | COc1c(N)cc(CC(=O)O)cc1-c1cnc(NC(C)C)c(=O)n1CC(=O)NCc1ccc(C(=N)N)cc1 [Example 23, {3-Amino-5-[1-[2-({4-[amino(imino)methyl]benzyl}amino)-2-oxoethyl]-5-(isopropylamino)-6-oxo-1,6-dihydropyrazin-2-yl]-4-methoxyphenyl}acetic Acid]
> 30 | < 30 | < 0.1 | CC(C)Nc1ncc(-c2cc(N)cc(C(=O)NCc3ccccc3)c2)n(CC(=O)NCc2ccc(C(=N)N)cc2)c1=O [Example 25]
> 30 | > 30 | < 0.1 | COCCNC(=O)c1cc(N)cc(-c2cnc(NC(C)C)c(=O)n2CC(=O)NCc2ccc(C(=N)N)cc2)c1 [Example 26, 3-amino-5-[1-[2-({4-[amino(imino)methyl]benzyl}amino)-2-oxoethyl]-5-(isopropylamino)-6-oxo-1,6-dihydropyrazin-2-yl]-N-(2-methoxyethyl)benzamide]
> 30 | > 30 | < 0.1 | CC(C)CNC(=O)c1cc(N)cc(-c2cnc(NC(C)C)c(=O)n2CC(=O)NCc2ccc(C(=N)N)cc2)c1 [Example 27]
> 30 | > 30 | > 0.1 | CC(C)Nc1ncc(-c2cc(N)cc(C(=O)NCCO)c2)n(CC(=O)NCc2ccc(C(=N)N)cc2)c1=O [Example 30]
> 30 | > 30 | > 0.1 | CC(C)Nc1nc(Cl)c(-c2cc(N)ccc2SCc2ccccc2)n(CC(=O)NCc2ccc(C(=N)N)cc2)c1=O [Example 31]
> 30 | > 30 | > 0.1 | CC(C)Nc1ncc(-c2cc(N)cc(C(=O)NCC(=O)O)c2)n(CC(=O)NCc2ccc(C(=N)N)cc2)c1=O [Example 32]
> 30 | > 30 | < 0.1 | CC(C)Nc1ncc(-c2cc(N)cc(C(=O)NCCc3ccc(F)cc3)c2)n(CC(=O)NCc2ccc(C(=N)N)cc2)c1=O [Example 33]
> 30 | > 30 | > 0.1 | CNc1ncc(-c2cc(N)cc(C(=O)OC)c2)n(CC(=O)NCc2ccc(C(=N)N)cc2)c1=O [Example 36]

IC50 [1] [µM] | IC50 [2] [µM] | IC50 [3] [µM] | Structure (SMILES)
> 30 | > 30 | > 0.1 | CNc1ncc(-c2cc(N)cc(C(=O)O)c2)n(CC(=O)NCc2ccc(C(=N)N)cc2)c1=O [Example 37]
> 30 | – | < 0.1 | CNC(=O)c1cc(N)cc(-c2cnc(NC(C)C)c(=O)n2CC(=O)NCc2ccc(C(=N)N)cc2)c1 [Example 38]
> 30 | – | < 0.1 | COCCNC(=O)c1cc(N)cc(-c2cnc(NC(C)C)c(=O)n2CC(=O)NCc2ccc(C(=N)N)cc2)c1 [Example 39]
> 30 | – | < 0.1 | CC(C)Nc1ncc(-c2cc(N)cc(C(=O)NCCN3CCOCC3)c2)n(CC(=O)NCc2ccc(C(=N)N)cc2)c1=O [Example 40]
> 30 | – | < 0.1 | CC(C)Nc1ncc(-c2cc(N)cc(C(=O)NCCN3CCCC3)c2)n(CC(=O)NCc2ccc(C(=N)N)cc2)c1=O [Example 41]
> 30 | – | < 0.1 | CONC(=O)c1cc(N)cc(-c2cnc(NC(C)C)c(=O)n2CC(=O)NCc2ccc(C(=N)N)cc2)c1 [Example 42]
> 30 | – | < 0.1 | CC(C)Nc1ncc(-c2cc(N)cc(C(=O)NC(C)(CO)CO)c2)n(CC(=O)NCc2ccc(C(=N)N)cc2)c1=O [Example 43]
> 30 | – | < 0.1 | CCOC(=O)c1cc(N)cc(-c2cnc(NC(C)C)c(=O)n2CC(=O)NCc2ccc(C(=N)N)cc2)c1 [Example 44]
> 30 | – | < 0.1 | CC(C)Nc1ncc(-c2cc(N)cc(C(=O)NC(C)(C)CCO)c2)n(CC(=O)NCc2ccc(C(=N)N)cc2)c1=O [Example 45]
> 30 | – | < 0.1 | CC(C)Nc1ncc(-c2cc(N)cc(C(N)=O)c2)n(CC(=O)NCc2ccc(C(=N)N)cc2)c1=O [Example 47]
> 30 | > 30 | > 0.1 | COC(=O)c1cc(N)cc(-c2cnc(NC(C)C)c(=O)n2CC(=O)NCc2c(F)c(F)c(C(=N)N)c(F)c2F)c1 [Example 48]
– | – | > 0.1 | CCCCN(CCCC)c1cc(N)cc(-c2cnc(NC(C)C)c(=O)n2CC(=O)NCc2ccc(C(=N)N)cc2)c1 [Example 149]
– | – | < 0.1 | CC(C)Nc1ncc(-c2cc(N)cc(NC(=O)C3CCNCC3)c2)n(CC(=O)NCc2ccc(C(=N)N)cc2)c1=O [Example 150]
– | – | < 0.1 | CC(C)Nc1ncc(-c2cc(N)cc(NC(=O)C3CCCNC3)c2)n(CC(=O)NCc2ccc(C(=N)N)cc2)c1=O (stereo not drawn) [Example 151]
– | – | > 0.1 | CC(C)Nc1ccc(-c2cc(N)cc(N)c2)n(CC(=O)NCc2ccc(C(=N)N)cc2)c1=O [Example 163]
– | > 30 | > 0.1 | N=C(N)c1c(O)c(F)c(CNC(=O)Cn2c(-c3cc(N)cc(C(F)(F)F)c3)cnc(NC3CC3)c2=O)c(F)c1F [Example 243]
– | > 30 | > 0.1 | CC[C@@H](C)NC(=O)c1cc(N)cc(-c2cnc(NC(C)C)c(=O)n2CC(=O)NCc2c(O)cc(C(=N)N)cc2OCC(=O)O)c1 [Example 244]
– | < 30 | < 0.1 | CC[C@@H](C)NC(=O)c1cc(N)cc(-c2cnc(N[C@@H](C)CO)c(=O)n2CC(=O)NCc2ccc(C(=N)N)cc2)c1 [Example 248]
– | > 30 | > 0.1 | CC[C@@H](C)NC(=O)c1cc(N)cc(-c2cnc(NC(C)C)c(=O)n2CC(=O)NCc2c(O)cc(C(=N)N)cc2OCc2cccnc2)c1 [Example 255]

Structure (SMILES) | IC50 [1] [µM] | IC50 [2] [µM] | IC50 [3] [µM]
CC(C)Nc1ncc(-c2cc(N)cc(C(=O)NC[Si](C)(C)C)c2)n(CC(=O)NCc2ccc(C(=N)N)cc2)c1=O [Example 12] | > 30 | > 30 | < 0.1
